Assay results taken from ChEMBL document CHEMBL1201862, “PubChem BioAssay data set” (2004).
Activity calls are given as the source filed them.

Columns and labels:
[1] = HIV-1 AD8 envelope cell-cell fusion blockers – cherry-pick, dose response (AID 652062); format: functional, cell-based;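 further: luciferase signal from cell-cell fusion driven by HIV-1 clade B AD8 Env; potency is for inhibitors of fusion seen as a drop in luminescence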
[2] = Luminescence Cell-Based Dose Retest to Confirm Inhibitors of Cancer Stem Cells. [Related pubchem assays (depositor defined):AID2717, AID2721]; format: functional; details: Homo sapiens
[3] = blockers of HIV-1 envelope-mediated cell-cell fusion – cherry-pick, dose response (AID 652057); format: functional, cell-based
[4] = viability loss in CEM21 cells – cell-based, CellTiter-Glo luminescence, cherry-picked, cytotoxicity control for viral fusion inhibitor project, dose response (AID 652042); format: functional;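 further: potency for signal decrease meaning cytotoxicity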
[5] = off-target signal loss in HeLa-CEM21 co-culture – HeLa F-luc CTL cells, cherry-picked, counter-screen for HIV-1 Env fusion inhibitor project, dose response (AID 652040); format: functional, cell-based;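 further: potency for signal decrease marking cytotoxic or nonspecific inhibition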
[6] = biological target: Glucose-6-phosphate 1-dehydrogenase (Homo sapiens, UniProt P11413); assay: inhibition of Homo sapiens G6PD, dose series – biochemical, fluorescence, selectivity assay for P. falciparum G6PD inhibitor project, dose response (AID 504792); format: functional
Streptococcus = assay: GAS UMAA2166 growth inhibition – luminescence, BacTiterGlo, counter-screen for streptokinase expression inhibitor project, dose response (AID 1915); format: functional, organism-based;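 further: potency for reduction of bacterial viability or growth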
Vero [7] = assay: cells; format: functional; details: Chlorocebus sabaeus
Vero [8] = assay: cells; format: functional, cell-based; details: Chlorocebus sabaeus
[9] = test system: Streptococcus sp. 'group A'; assay: Streptococcus pyogenes SK(-)GAS viability under kanamycin – luminescence, BacTiterGlo, confirmation, counter-screen for streptokinase expression inhibitor project, dose response (AID 1900); format: functional, organism-based
[10] = biological target: T1, Corticotropin-releasing factor receptor 2/Corticotropin-releasing factor-binding protein (Homo sapiens, UniProt P24387+Q13324); assay: activators of CRF receptor 2 with binding protein – uHTS hits, confirmation (AID 602473); format: functional; details: read-out: EC50_Mean
T1 sequence (Q13324 whole entry): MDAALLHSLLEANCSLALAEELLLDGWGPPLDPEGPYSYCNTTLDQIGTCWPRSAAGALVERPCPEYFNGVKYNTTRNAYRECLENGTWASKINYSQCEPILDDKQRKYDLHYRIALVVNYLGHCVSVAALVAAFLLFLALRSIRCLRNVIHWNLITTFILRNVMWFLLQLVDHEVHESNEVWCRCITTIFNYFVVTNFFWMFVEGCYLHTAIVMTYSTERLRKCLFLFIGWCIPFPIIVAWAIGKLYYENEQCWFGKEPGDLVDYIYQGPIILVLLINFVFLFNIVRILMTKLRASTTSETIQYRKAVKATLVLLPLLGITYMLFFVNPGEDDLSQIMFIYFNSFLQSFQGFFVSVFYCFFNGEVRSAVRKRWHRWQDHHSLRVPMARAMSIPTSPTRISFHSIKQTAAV
T1 sequence (P24387 whole entry): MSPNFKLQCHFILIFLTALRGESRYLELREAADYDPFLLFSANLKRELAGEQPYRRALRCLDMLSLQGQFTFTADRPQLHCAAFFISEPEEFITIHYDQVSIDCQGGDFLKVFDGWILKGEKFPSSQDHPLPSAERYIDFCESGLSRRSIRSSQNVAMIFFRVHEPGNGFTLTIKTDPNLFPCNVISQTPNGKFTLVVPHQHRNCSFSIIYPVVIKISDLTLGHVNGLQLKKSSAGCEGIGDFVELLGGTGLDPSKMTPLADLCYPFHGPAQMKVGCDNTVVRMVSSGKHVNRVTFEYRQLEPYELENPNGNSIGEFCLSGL

[11] = blockers of CRF-binding protein–CRF-R2 complex – cell-based, uHTS hits, 384-well, dose response (AID 651639); format: functional, Homo sapiens; details: read-out: IC50_Mean
[12] = biological target: T1, Corticotropin-releasing factor receptor 2/Corticotropin-releasing factor-binding protein; assay: Dose Response confirmation of uHTS hits for small molecule antagonists of the CRF-binding protein and CRF-R2 receptor complex.; format: functional; details: read-out: IC50_Mean
[13] = biological target: Dual specificity tyrosine-phosphorylation-regulated kinase 1A (Rattus norvegicus, UniProt Q63470); format: biochemical, Homo sapiens
HEK293 = assay: EBV LMP1 TES2 canonical NF-kB signalling blockers – cell-based, HEK293, luciferase, cherry-pick, dose response (AID 588343); format: functional; details: Homo sapiens
Fatty acid synthase [14] = biological target: T2, Fatty acid synthase (Homo sapiens, UniProt P49327); assay: inhibition of human FAS-TE enzyme activity – biochemical, endpoint fluorescence intensity, uHTS hits, dose response (AID 624327); format: functional;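 further: fluorescence from hydrolysis of an O-methyl fluorescein acyl ester substrate by the enzyme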
Fatty acid synthase [15] = biological target: T2, Fatty acid synthase; assay: inhibition of human FAS-TE enzyme activity – biochemical, kinetic fluorescence intensity, dose response (AID 624326); format: functional;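 further: rate of fluorescence rise from hydrolysis of a fluorogenic O-methyl fluorescein ester substrate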
[16] = biological target: G-protein coupled receptor 55 (Homo sapiens, UniProt Q9Y2T6); assay: inhibition of LPI-stimulated GPR55 beta-arrestin translocation – imaging, U2OS, beta-arrestin-GFP, LPI agonist, primary screen (AID 2013); format: functional;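 further: antagonist potency measured as reduced agonist-driven arrestin aggregation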
G-protein coupled receptor 55, sequence (Q9Y2T6 whole entry): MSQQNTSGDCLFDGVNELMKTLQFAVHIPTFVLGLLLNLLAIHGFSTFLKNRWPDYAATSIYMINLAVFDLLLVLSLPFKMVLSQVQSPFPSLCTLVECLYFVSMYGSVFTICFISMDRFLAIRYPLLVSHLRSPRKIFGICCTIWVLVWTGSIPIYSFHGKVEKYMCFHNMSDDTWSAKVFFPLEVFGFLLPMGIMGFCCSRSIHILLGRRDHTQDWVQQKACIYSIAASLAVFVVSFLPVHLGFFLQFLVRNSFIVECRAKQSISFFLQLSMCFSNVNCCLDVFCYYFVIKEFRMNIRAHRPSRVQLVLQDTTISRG

T2 sequence (P49327 whole entry): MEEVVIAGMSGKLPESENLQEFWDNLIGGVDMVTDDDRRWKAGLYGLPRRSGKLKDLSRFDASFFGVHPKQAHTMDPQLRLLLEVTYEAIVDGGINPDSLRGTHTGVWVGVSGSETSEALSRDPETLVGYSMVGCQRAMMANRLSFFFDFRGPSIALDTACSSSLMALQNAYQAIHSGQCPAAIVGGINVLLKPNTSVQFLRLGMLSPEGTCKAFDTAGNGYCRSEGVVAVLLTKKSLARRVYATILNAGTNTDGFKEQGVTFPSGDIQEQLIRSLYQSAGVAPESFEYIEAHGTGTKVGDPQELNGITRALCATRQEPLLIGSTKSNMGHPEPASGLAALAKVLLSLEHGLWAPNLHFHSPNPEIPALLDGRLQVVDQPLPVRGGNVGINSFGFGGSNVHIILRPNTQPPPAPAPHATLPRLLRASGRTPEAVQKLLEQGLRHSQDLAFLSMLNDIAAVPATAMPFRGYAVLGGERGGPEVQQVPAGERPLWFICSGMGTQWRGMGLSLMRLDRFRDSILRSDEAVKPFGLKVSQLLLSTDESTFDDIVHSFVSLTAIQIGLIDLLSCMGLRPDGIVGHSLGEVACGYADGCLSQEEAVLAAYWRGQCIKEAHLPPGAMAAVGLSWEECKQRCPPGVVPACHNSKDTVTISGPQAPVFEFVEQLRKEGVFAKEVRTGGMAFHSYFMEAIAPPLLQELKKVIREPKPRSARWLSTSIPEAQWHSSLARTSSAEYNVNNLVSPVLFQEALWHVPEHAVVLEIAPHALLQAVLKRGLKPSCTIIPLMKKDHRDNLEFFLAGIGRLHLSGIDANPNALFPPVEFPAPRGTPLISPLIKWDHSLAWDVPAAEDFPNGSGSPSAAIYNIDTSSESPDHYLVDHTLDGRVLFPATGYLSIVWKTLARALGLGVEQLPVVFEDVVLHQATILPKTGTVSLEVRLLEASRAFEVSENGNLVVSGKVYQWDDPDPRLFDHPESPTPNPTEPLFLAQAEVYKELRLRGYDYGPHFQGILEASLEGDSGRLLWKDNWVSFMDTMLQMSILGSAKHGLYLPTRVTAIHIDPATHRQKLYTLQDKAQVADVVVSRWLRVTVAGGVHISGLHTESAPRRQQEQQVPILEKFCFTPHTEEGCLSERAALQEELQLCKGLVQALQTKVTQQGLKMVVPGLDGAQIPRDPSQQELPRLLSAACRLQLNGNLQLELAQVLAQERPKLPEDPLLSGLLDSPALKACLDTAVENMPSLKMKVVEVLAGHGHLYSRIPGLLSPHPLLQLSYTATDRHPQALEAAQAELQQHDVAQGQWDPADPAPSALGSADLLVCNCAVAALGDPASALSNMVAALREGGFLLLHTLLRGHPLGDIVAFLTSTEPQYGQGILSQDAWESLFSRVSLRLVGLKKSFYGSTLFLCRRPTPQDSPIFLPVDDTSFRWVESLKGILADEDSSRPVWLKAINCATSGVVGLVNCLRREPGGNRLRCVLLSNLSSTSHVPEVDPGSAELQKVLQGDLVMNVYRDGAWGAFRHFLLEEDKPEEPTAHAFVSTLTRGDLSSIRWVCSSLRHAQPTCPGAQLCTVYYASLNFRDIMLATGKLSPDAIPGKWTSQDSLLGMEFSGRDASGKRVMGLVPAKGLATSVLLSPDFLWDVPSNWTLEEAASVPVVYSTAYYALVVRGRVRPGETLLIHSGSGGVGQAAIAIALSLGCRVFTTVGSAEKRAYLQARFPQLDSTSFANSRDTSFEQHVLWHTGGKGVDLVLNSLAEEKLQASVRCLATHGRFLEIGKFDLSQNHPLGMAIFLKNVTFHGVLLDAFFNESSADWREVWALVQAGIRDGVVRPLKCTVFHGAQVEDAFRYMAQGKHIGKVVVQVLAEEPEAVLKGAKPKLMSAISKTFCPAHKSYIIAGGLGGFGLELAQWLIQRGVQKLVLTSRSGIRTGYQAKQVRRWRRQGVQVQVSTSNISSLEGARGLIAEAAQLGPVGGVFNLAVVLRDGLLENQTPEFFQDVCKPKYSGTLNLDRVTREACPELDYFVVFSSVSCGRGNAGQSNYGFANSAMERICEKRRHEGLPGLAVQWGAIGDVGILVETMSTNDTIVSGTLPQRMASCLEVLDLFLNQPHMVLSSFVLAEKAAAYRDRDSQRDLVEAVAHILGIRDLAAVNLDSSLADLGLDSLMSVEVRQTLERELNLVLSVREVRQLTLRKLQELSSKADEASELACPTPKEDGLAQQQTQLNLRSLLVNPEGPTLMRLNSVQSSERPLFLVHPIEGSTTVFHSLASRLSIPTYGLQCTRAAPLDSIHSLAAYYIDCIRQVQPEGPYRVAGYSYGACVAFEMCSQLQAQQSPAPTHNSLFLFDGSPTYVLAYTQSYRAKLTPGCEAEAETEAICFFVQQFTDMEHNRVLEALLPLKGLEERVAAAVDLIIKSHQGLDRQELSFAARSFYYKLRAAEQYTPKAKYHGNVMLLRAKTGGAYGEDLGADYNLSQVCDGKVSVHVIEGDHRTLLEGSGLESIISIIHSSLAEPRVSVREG
Glucose-6-phosphate 1-dehydrogenase, sequence (P11413 whole entry): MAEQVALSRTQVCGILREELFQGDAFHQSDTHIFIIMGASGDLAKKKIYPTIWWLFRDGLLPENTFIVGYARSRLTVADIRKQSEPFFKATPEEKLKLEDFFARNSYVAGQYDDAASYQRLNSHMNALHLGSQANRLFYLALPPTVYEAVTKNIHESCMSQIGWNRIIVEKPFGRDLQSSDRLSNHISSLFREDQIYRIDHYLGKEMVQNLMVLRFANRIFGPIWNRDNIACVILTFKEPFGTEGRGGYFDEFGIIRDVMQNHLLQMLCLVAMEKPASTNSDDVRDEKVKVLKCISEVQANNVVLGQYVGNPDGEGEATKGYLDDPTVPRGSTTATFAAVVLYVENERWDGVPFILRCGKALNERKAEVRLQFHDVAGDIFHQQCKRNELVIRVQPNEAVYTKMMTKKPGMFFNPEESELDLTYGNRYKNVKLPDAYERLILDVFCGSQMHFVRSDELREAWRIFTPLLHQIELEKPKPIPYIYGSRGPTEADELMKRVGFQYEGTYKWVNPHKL

CCOC(=O)c1cnc2ccc(OCC)cc2c1NCc1ccccc1OC
AC50 [1]: 35.4 µM (active)
AC50 [2]: 4.51 µM (active)
AC50 [3]: 10.6 µM (active)
AC50 [4]: 19.4 µM (active)
AC50 [5]: 25.7 µM (active)

CCCCOc1ccc(Cc2nnc(S)n2N)cc1
IC50 [6]: > 80 µM (inactive)

COc1ccc(C(=O)NNC(=S)NC(=O)/C=C/c2cccs2)cc1
EC50 (Streptococcus): 4.2 µM (active)
CC50 (Vero [7]): > 25 µM (active)
IC50 (Vero [8]): > 25 µM (active)
EC50 [9]: 0.802 µM (active)

CCCCOc1ccc(OC(=O)Nc2cc(Cl)ccc2OC)cc1
EC50 [10]: > 53 µM (inactive)
IC50 [11]: > 20 µM (inactive)
IC50 [12]: < 0.368 µM (active)

CC(=O)Nc1cccc(-c2cnc(N)c(C(=O)c3cccnc3)n2)c1
AC50 [13]: 0.193 µM (active)
AC50 (HEK293): 21.4 µM (active)

O=C(O)c1ccc(Cl)c(NC(=S)NC(=O)c2cccc(COc3ccccc3)c2)c1
EC50 [10]: > 53 µM (inactive)
IC50 (Fatty acid synthase [14]): 6.11 µM (active)
IC50 (Fatty acid synthase [15]): 4.47 µM (active)
IC50 [11]: > 20 µM (inactive)
IC50 [16]: 2.3 µM (active)
IC50 [12]: < 0.368 µM (active)

O=c1c2cnn(-c3ccccc3)c2nc(-c2cccs2)n1-c1ccc(Cl)cc1
AC50 (HEK293): 1.78 µM (active)
